# Source: BindingDB's records for patent US20230339939 (Bayer Aktiengesellschaft, 2023)
# Key:
# [1] = target: T1, Casein kinase I isoform alpha (Homo sapiens, UniProt P48729); experiment: CSNK1A1 Inhibitory activity Assay 2
# Description: (§1) Recombinant fusion protein of N-terminal Glutathion-S-Transferase (GST) and full-length human CSNK1A1, expressed by baculovirus infected insect cells and purified via Glutathion affinity chromatography, was purchased from Life Technologies (product no. PV4174) and used as enzyme. As substrate for the kinase reaction the biotinylated peptide biotin-Ahx-KRRRAL-pS-VASLPGL (C-terminus in amide form) was used which can be purchased e.g. from the company Biosyntan (Berlin-Buch, Germany). For the assay 50 nl of a 100 fold concentrated solution of the test compound in DMSO was pipetted into a white low volume 384-well microtiter plate (Greiner Bio-One, Frickenhausen, Germany), 2 μL of a solution of CSNK1A1 in aqueous assay buffer [50 mM HEPES pH 7.5, 10% (v/v) glycerol, 10 mM MgCl2, 50 mM NaCl, 1 mM dithiothreitol, 0.01% (w/v) bovine serum albumin, 0.01% (v/v) Triton X-100] were added and the mixture was incubated for 15 min at 22 C. to allow pre-binding of the test compounds to the enzyme before the start of the kinase reaction. […] Subsequently 2.5 μL of the kinase detection reagent (1.2 fold more concentrated than recommended by the producer) were added, the resulting mixture was incubated at 22 C. for 1 h and then the luminescence measured with a suitable measurement instrument (e.g. Viewlux from Perkin-Elmer).
# [2] = target: Casein kinase I isoform delta (Homo sapiens, UniProt P48730); experiment: CSNK1D-Inhibitory Activity Assay
# Sequence of Casein kinase I isoform delta (P48730 whole entry, canonical isoform): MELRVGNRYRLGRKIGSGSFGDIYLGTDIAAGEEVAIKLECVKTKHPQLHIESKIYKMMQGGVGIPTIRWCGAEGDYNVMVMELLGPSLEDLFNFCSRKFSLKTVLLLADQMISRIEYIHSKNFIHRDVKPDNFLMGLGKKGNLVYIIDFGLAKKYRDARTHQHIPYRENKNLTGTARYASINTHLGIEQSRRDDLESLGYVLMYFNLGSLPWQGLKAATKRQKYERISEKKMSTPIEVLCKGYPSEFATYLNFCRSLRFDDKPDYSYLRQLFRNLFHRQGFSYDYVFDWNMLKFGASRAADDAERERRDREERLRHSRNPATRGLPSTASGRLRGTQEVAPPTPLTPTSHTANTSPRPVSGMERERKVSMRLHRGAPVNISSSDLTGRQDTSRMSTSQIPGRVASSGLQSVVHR
# Experimental: as §1, with “CSNK1D,” for “CSNK1A1,”, “PV3665)” for “PV4174)”, “Btn-Ahx-[…]” for “biotin-Ahx-KRRRAL-pS-VASLPGL”, “1536-well” for “low volume 384-well”, “CSNK1D” for “CSNK1A1”
# [3] = target: T1, Casein kinase I isoform alpha; experiment: CSNK1A1 High ATP Assay
# Description: as §1
# [4] = target: Epidermal growth factor receptor (Homo sapiens, UniProt P00533); experiment: WT-EGFR Kinase Assay
# Sequence of Epidermal growth factor receptor (P00533 whole entry): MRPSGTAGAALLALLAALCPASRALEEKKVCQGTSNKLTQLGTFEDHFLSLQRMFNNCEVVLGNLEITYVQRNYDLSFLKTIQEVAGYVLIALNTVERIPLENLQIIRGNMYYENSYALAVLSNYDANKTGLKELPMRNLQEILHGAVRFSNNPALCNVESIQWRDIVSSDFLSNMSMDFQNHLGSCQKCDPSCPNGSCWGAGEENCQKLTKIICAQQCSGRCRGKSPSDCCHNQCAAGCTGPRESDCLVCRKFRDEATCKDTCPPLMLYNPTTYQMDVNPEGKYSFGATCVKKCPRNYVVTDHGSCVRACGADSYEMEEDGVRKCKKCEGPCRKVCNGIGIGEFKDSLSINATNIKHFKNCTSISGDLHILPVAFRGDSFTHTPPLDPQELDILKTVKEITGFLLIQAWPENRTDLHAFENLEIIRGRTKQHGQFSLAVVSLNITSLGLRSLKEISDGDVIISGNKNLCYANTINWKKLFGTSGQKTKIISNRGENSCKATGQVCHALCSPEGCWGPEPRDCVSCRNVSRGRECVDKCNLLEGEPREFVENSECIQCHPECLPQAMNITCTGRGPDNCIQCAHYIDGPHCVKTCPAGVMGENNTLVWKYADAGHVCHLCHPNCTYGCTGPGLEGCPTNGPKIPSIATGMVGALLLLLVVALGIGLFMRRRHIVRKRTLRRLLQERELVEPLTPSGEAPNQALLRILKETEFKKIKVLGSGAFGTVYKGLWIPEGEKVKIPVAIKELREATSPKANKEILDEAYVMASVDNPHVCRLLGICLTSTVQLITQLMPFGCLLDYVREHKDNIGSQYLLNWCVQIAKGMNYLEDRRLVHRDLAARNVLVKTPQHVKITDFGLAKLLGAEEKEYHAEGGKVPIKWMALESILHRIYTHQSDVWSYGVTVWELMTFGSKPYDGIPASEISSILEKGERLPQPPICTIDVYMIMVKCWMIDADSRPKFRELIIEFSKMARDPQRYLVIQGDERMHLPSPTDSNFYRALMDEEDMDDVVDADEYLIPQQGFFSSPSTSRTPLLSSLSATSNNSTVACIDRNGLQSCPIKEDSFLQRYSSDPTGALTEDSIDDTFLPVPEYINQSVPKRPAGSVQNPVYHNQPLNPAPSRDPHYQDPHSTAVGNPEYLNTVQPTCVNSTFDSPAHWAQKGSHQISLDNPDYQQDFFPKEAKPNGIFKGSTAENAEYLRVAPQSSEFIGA
# Experimental: For the assay 50 nl of a 100 fold concentrated solution of the test compound in DMSO was pipetted into either a black low volume 384 well microtiter plate or a black 1536 well microtiter plate (both Greiner Bio-One, Frickenhausen, Germany), 2 μL of a solution of EGFR in aqueous assay buffer [50 mM Hepes pH 7.0, 10 mM MgCl2, 1 mM dithiothreitol, 0.5 mM EGTA, 0.3 mM activated sodium ortho-vanadate, 0.005% (w/v) bovine serum albumin, 0.005% (v/v) Tween-20] were added and the mixture was incubated for 15 min at 22° C. to allow pre-binding of the test compounds to the enzyme before the start of the kinase reaction. […] The concentration of EGFR was adjusted depending of the activity of the enzyme lot and was chosen appropriate to have the assay in the linear range, typical concentration was 7.6 pg/μL. The reaction was stopped by the addition of 3 μL of a solution of HTRF detection reagents (83.3 nM streptavidine-XL665 [Cisbio Bioassays, Codolet, France] and 1.67 nM PT66-Tb-Cryptate, a terbium-cryptate labelled anti-phospho-tyrosine antibody from Cisbio Bioassays [instead of the PT66-Tb-cryptate PT66-Eu-Chelate from Perkin Elmer can also be used]) in an aqueous EDTA-solution (133.3 mM EDTA, 0.2% (w/v) bovine serum albumin in 50 mM HEPES pH 7.5). […]
# T1 sequence (P48729 whole entry, the tested form may be a part, canonical isoform): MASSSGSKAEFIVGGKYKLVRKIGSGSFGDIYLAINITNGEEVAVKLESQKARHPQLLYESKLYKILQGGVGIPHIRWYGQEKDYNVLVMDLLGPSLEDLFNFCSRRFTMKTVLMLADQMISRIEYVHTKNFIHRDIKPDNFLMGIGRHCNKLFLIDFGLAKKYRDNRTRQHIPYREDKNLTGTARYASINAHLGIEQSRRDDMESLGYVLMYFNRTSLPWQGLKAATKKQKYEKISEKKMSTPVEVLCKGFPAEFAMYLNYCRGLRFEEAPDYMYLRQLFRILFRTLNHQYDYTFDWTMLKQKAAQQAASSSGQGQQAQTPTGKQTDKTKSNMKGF
Compound,IC50 [1] [nM],IC50 [2] [nM],IC50 [3] [nM],IC50 [4] [nM]
"CC(C)C(C(=O)Nc1cc(-c2[nH]c3ccc(F)nc3c2-c2ccccn2)ccn1)c1ccc(F)cc1 (single isomer, unassigned) [US20230339939, Example 24]",4.79,10.4,43,
"O=C(Cc1ccc(F)cc1)Nc1cc(-c2[nH]c3c(CC4CC4)cc(F)nc3c2-c2ccccn2)ccn1 [US20230339939, Example 37]",4,5.76,9.53,> 20000
